Laboratory results published in US11072591B2, “Tetrazole compounds and their use in the treatment of tuberculosis” (GLAXOSMITHKLINE INTELLECTUAL PROPERTY DEVELOPMENT LIMITED, priority 2017, dated 2021).
In brackets after ≈: the same amount, converted by molar mass. Like-named read-outs stand apart in the source and are kept apart here.

Test system: M. tuberculosis H37Rv
Experiment: Mycobacterium tuberculosis H37Rv Inhibition Assay (Whole Cell Assay), MIC
Format: cell-based
[1] = 144 h, M. tuberculosis H37Rv, Middlebrook 7H9 + ADC, 37° C. six days, resazurin readout, read-out: MIC_H37Rv
[2] = M. tuberculosis H37Rv whole cell assay, value from repeated testing of the compound, read-out: MIC

Row | SMILES | MIC [1] [µM] | MIC [2] [µM]
1 | O=S(=O)(NCCO)c1ccc(-c2nnn(CC3CCCCO3)n2)cc1 (racemic) [Example 7, N-(2-hydroxyethyl)-4-(2-((tetrahydro-2H-pyran-2-yl)methyl)-2H-tetrazol-5-yl)benzenesulfonamide] | < 0.1 | –
2 | Cc1cc(S(=O)(=O)NCCO)ccc1-c1nnn(CC2CCCCO2)n1 (single isomer, unassigned) [Example 74 Isomer 1, N-(2-hydroxyethyl)-3-methyl-4-(2-((tetrahydro-2H-pyran-2-yl)methyl)-2H-tetrazol-5-yl)benzenesulfonamide] | 5 to 10 | –
3 | COc1cc(-c2nnn(C(C)c3ccc(F)cc3)n2)ccc1S(=O)(=O)NCC(N)=O (single isomer, unassigned) [Example 115 Isomer 2, 2-(4-(2-(1-(4-fluorophenyl)ethyl)-2H-tetrazol-5-yl)-2-methoxyphenylsulfonamido)acetamide] | – | 0.45 to 1.25 (≈ 0.196 to 0.543 µg/mL)
4 | O=S(=O)(NCCO)c1ccc(-c2nnn(Cc3ccncn3)n2)cc1 [Example 2, N-(2-hydroxyethyl)-4-(2-(pyrimidin-4-ylmethyl)-2H-tetrazol-5-yl)benzenesulfonamide] | 1 to 5 | –
5 | CNS(=O)(=O)c1ccc(-c2nnn(Cc3ccc(F)cc3)n2)cc1 [Example 3, 4-(2-(4-fluorobenzyl)-2H-tetrazol-5-yl)-N-methylbenzenesulfonamide] | 1 to 5 | –
6 | CNS(=O)(=O)c1ccc(-c2nnn(Cc3ccncc3)n2)cc1 [Example 4, N-methyl-4-(2-(pyridin-4-ylmethyl)-2H-tetrazol-5-yl)benzenesulfonamide] | 1 to 5 | –
7 | CCNS(=O)(=O)c1ccc(-c2nnn(Cc3ccncc3)n2)cc1 [Example 5, N-ethyl-4-(2-(pyridin-4-ylmethyl)-2H-tetrazol-5-yl)benzenesulfonamide] | 10 to 25 | –
8 | COc1ccc(Cn2nnc(-c3ccc(S(=O)(=O)NCCO)cc3)n2)cc1 [Example 6, N-(2-hydroxyethyl)-4-(2-(4-methoxybenzyl)-2H-tetrazol-5-yl)benzenesulfonamide] | < 0.1 | –
9 | O=S(=O)(NCCO)c1ccc(-c2nnn(Cc3ccc(C(F)F)cc3)n2)cc1 [Example 10] | < 0.1 | –
10 | O=S(=O)(NCCO)c1ccc(-c2nnn(CC3CCC(F)(F)CC3)n2)cc1 [Example 11] | < 0.1 | –
11 | C[C@@H](O)CNS(=O)(=O)c1ccc(-c2nnn(Cc3ccncc3)n2)cc1 [Example 12] | < 0.1 | –
12 | C[C@@H](O)CNS(=O)(=O)c1ccc(-c2nnn(CC3CCC(F)(F)CC3)n2)cc1 [Example 13] | 10 to 25 | –
13 | C[C@H](O)CNS(=O)(=O)c1ccc(-c2nnn(Cc3ccc(F)cc3)n2)cc1 [Example 14] | 1 to 5 | –
14 | O=S(=O)(NC(CO)CO)c1ccc(-c2nnn(Cc3ccc(F)cc3)n2)cc1 [Example 15] | 5 to 10 | –
15 | O=S(=O)(NC(CO)CO)c1ccc(-c2nnn(Cc3ccncc3)n2)cc1 [Example 16] | 5 to 10 | –
16 | O=S(=O)(NCC(O)CO)c1ccc(-c2nnn(Cc3ccc(F)cc3)n2)cc1 (stereo not shown) [Example 17] | 5 to 10 | –
17 | O=S(=O)(NCCO)c1ccc(-c2nnn(Cc3ccc(Cl)cn3)n2)cc1 [Example 18, 4-(2-((5-chloropyridin-2-yl)methyl)-2H-tetrazol-5-yl)-N-(2-hydroxyethyl)benzenesulfonamide] | < 0.1 | –
18 | CCc1ccc(Cn2nnc(-c3ccc(S(=O)(=O)NCCO)cc3)n2)cc1 [Example 19] | 1 to 5 | –
19 | N#Cc1ccc(Cn2nnc(-c3ccc(S(=O)(=O)NCCO)cc3)n2)nc1 [Example 20] | < 0.1 | –
20 | O=S(=O)(NCCO)c1ccc(-c2nnn(Cc3ncc(F)cc3F)n2)cc1 [Example 21] | 1 to 5 | –
21 | Cc1cccc(Cn2nnc(-c3ccc(S(=O)(=O)NCCO)cc3)n2)n1 [Example 22] | 10 to 25 | –

Row | SMILES | MIC [1] [µM] | MIC [2] [µM]
22 | Cc1nccc(Cn2nnc(-c3ccc(S(=O)(=O)NCCO)cc3)n2)n1 [Example 23] | 5 to 10 | –
23 | C[C@@H](O)CNS(=O)(=O)c1ccc(-c2nnn(Cc3ccc(F)cc3)n2)cc1 [Example 24] | < 0.1 | –
24 | C[C@@H](O)CNS(=O)(=O)c1ccc(-c2nnn(Cc3ccc(F)cn3)n2)cc1 [Example 25] | < 0.1 | 0.6 (≈ 0.235 µg/mL)
25 | COc1ccc(Cn2nnc(-c3ccc(S(=O)(=O)NC[C@@H](C)O)cc3)n2)nc1 [Example 26] | 10 to 25 | –
26 | Cc1ccc(Cn2nnc(-c3ccc(S(=O)(=O)NC[C@@H](C)O)cc3)n2)nc1 [Example 27] | 10 to 25 | –
27 | COc1ccc(Cn2nnc(-c3ccc(S(=O)(=O)NC[C@@H](C)O)cc3)n2)cc1 [Example 28] | 1 to 5 | –
28 | O=S(=O)(NCCO)c1ccc(-c2nnn(Cc3ccc(F)cn3)n2)cc1 [Example 29, 4-(2-((5-fluoropyridin-2-yl)methyl)-2H-tetrazol-5-yl)-N-(2-hydroxyethyl)benzenesulfonamide] | < 0.1 | 0.07 to 0.16 (≈ 0.0265 to 0.0605 µg/mL)
29 | COc1ccc(Cn2nnc(-c3ccc(S(=O)(=O)NCCO)cc3)n2)cc1F [Example 30] | < 0.1 | –
30 | COc1ccc(Cn2nnc(-c3ccc(S(=O)(=O)NCCO)cc3)n2)nc1 [Example 31] | 1 to 5 | –
31 | Cc1ccc(Cn2nnc(-c3ccc(S(=O)(=O)NCCO)cc3)n2)nc1 [Example 32] | 1 to 5 | –
32 | O=S(=O)(NCCO)c1ccc(-c2nnn(Cc3ccncc3)n2)cc1 [Example 33] | < 0.1 | –
33 | Cc1cc(Cn2nnc(-c3ccc(S(=O)(=O)NCCO)cc3)n2)ccn1 [Example 34] | 1 to 5 | –
34 | NC(=O)CNS(=O)(=O)c1ccc(-c2nnn(Cc3ccc(F)cn3)n2)cc1 [Example 38] | < 0.1 | –
35 | NC(=O)CNS(=O)(=O)c1ccc(-c2nnn(CC3CCC(F)(F)CC3)n2)cc1 [Example 39] | < 0.1 | –
36 | Cc1ccc(Cn2nnc(-c3ccc(S(=O)(=O)NCC(N)=O)cc3)n2)nc1 [Example 40] | < 0.1 | –
37 | Cc1cc(Cn2nnc(-c3ccc(S(=O)(=O)NCC(N)=O)cc3)n2)ccn1 [Example 42] | < 0.1 | –
38 | COC(=O)CNS(=O)(=O)c1ccc(-c2nnn(Cc3ccc(F)cc3)n2)cc1 [Example 43] | 1 to 5 | –
39 | COC(=O)CNS(=O)(=O)c1ccc(-c2nnn(Cc3ccncc3)n2)cc1 [Example 44] | 5 to 10 | –
40 | NC(=O)CNS(=O)(=O)c1ccc(-c2nnn(Cc3ccncc3)n2)cc1 [Example 46, 2-(4-(2-(pyridin-4-ylmethyl)-2H-tetrazol-5-yl)phenylsulfonamido)acetamide] | < 0.1 | –
41 | COc1cc(-c2nnn(Cc3ccc(F)cc3)n2)ccc1S(=O)(=O)NCCO [Example 47, 4-(2-(4-fluorobenzyl)-2H-tetrazol-5-yl)-N-(2-hydroxyethyl)-2-methoxybenzenesulfonamide] | < 0.1 | –
42 | COc1cc(-c2nnn(Cc3ccncc3)n2)ccc1S(=O)(=O)NCCO [Example 48, N-(2-hydroxyethyl)-2-methoxy-4-(2-(pyridin-4-ylmethyl)-2H-tetrazol-5-yl)benzenesulfonamide] | 1 to 5 | –

Row | SMILES | MIC [1] [µM] | MIC [2] [µM]
43 | COc1cc(-c2nnn(Cc3ccc(C#N)cc3)n2)ccc1S(=O)(=O)NCCO [Example 49, 4-(2-(4-cyanobenzyl)-2H-tetrazol-5-yl)-N-(2-hydroxyethyl)-2-methoxybenzenesulfonamide] | < 0.1 | –
44 | COc1cc(-c2nnn(Cc3ccc(F)cn3)n2)ccc1S(=O)(=O)NCCO [Example 50, 4-(2-((5-fluoropyridin-2-yl)methyl)-2H-tetrazol-5-yl)-N-(2-hydroxyethyl)-2-methoxybenzenesulfonamide] | 1 to 5 | –
45 | CNS(=O)(=O)c1ccc(-c2nnn(Cc3ccncc3)n2)cc1OC [Example 51, 2-methoxy-N-methyl-4-(2-(pyridin-4-ylmethyl)-2H-tetrazol-5-yl)benzenesulfonamide] | 1 to 5 | –
46 | COc1cc(-c2nnn(Cc3ccc(F)cc3)n2)ccc1S(=O)(=O)NCC(N)=O [Example 53, 2-(4-(2-(4-fluorobenzyl)-2H-tetrazol-5-yl)-2-methoxyphenylsulfonamido)acetamide] | – | 0.04 (≈ 0.0168 µg/mL)
47 | COc1cc(-c2nnn(Cc3ccncc3)n2)ccc1S(=O)(=O)NCC(N)=O [Example 55] | < 0.1 | –
48 | N#CCNS(=O)(=O)c1ccc(-c2nnn(Cc3ccncc3)n2)cc1 [Example 56] | < 0.1 | –
49 | N#CCNS(=O)(=O)c1ccc(-c2nnn(Cc3ccncn3)n2)cc1 [Example 58] | < 0.1 | –
50 | N#CCNS(=O)(=O)c1ccc(-c2cn(Cc3ccncc3)nn2)cc1 [Example 60] | < 0.1 | –
51 | N#CCNS(=O)(=O)c1ccc(-c2cn(Cc3ccc(F)cn3)nn2)cc1 [Example 61] | < 0.1 | –
52 | O=S(=O)(NCCO)c1ccc(-c2cn(Cc3ccc(F)cn3)nn2)cc1 [Example 62, (4-(1-((5-fluoropyridin-2-yl)methyl)-1H-1,2,3-triazol-4-yl)-N-(2-hydroxyethyl)benzenesulfonamide)] | 1 to 5 | –
53 | COc1ccc(Cn2cc(-c3ccc(S(=O)(=O)NCCO)cc3)nn2)cc1 [Example 63] | < 0.1 | –
54 | O=S(=O)(NCCO)c1ccc(-c2cn(Cc3ccncc3)nn2)cc1 [Example 65] | < 0.1 | –
55 | N#Cc1ccc(Cn2cc(-c3ccc(S(=O)(=O)NCCO)cc3)nn2)cc1 [Example 66] | < 0.1 | –
56 | Cc1ccc(Cn2cc(-c3ccc(S(=O)(=O)NCCO)cc3)nn2)nc1 [Example 67] | 10 to 25 | –
57 | NC(=O)CNS(=O)(=O)c1ccc(-c2cn(CC3CCC(F)(F)CC3)nn2)cc1 [Example 69] | 1 to 5 | –
58 | C[C@@H](O)CNS(=O)(=O)c1ccc(-c2cn(Cc3ccc(F)cc3)nn2)cc1 [Example 70, (R)-4-(1-(4-fluorobenzyl)-1H-1,2,3-triazol-4-yl)-N-(2-hydroxypropyl) benzenesulfonamide] | < 0.1 | –
59 | Cc1cc(-c2nnn(Cc3ccc(F)cn3)n2)ccc1S(=O)(=O)NCCO [Example 71, 4-(2-((5-fluoropyridin-2-yl)methyl)-2H-tetrazol-5-yl)-N-(2-hydroxyethyl)-2-methyl Benzenesulfonamide] | < 0.1 | –
60 | Cc1cc(S(=O)(=O)NCCO)ccc1-c1nnn(Cc2ccc(F)cn2)n1 [Example 73, 4-(2-((5-fluoropyridin-2-yl)methyl)-2H-tetrazol-5-yl)-N-(2-hydroxyethyl)-3-methylbenzenesulfonamide] | < 0.1 | –
61 | O=S(=O)(NCCO)c1ccc(-c2nnn(Cc3ccc(F)cn3)n2)cc1F [Example 75, 2-fluoro-4-(2-((5-fluoropyridin-2-yl)methyl)-2H-tetrazol-5-yl)-N-(2-hydroxyethyl) benzenesulfonamide] | < 0.1 | 0.16 (≈ 0.0634 µg/mL)
